Laboratory results: US9790233B2, “Compositions and methods of modulating 15-PGDH activity” (CASE WESTERN RESERVE UNIVERSITY, priority 2012, dated 2017)
Like-named read-outs stand apart in the source and are kept apart here.

Legend:
Type in all cases: cell-based
[1] = system: 15-PGDH luciferase fusion construct in V9m reporter cell line; test: 15-PGDH-luciferase fusion gene reporter induction, V9m cells
[2] = system: 15-PGDH luciferase fusion construct in LS174T reporter cell line; test: 15-PGDH-luciferase fusion gene reporter induction, LS174T cells; settings: Homo sapiens
[3] = system: 15-PGDH luciferase fusion construct in Vaco503 reporter cell line; test: 15-PGDH-luciferase fusion gene reporter induction, V503 cells
[4] = read-out: V9M-SC3 Reporter activity ([…]) (%), […], Table 18, read-out: V9M-SC3 Reporter activity (2.5 μM) (%)
[5] = read-out: Ls174T-SC1 reporter activity, % ([…]), […], Table 18, read-out: Ls174T-SC1 reporter activity, % (2.5 μM)
[6] = read-out: Ls174T-SC1 reporter activity, % ([…]), […], Table 18, read-out: Ls174T-SC1 reporter activity, % (7.5 μM)
[7] = read-out: V503-3H9-7 reporter activity, % ([…]), […], Table 18, read-out: V503-3H9-7 reporter activity, % (2.5 μM)
[8] = read-out: V503-3H9-7 reporter activity, % ([…]), […], Table 18, read-out: V503-3H9-7 reporter activity, % (7.5 μM)
[9] = read-out: V9M reporter activity ([…]), […], % increased luciferase activity over basal level, 100 = doubling, read-out: V9M reporter activity (2.5 uM)
[10] = read-out: V9M-SC3 Reporter activity ([…]) (%), V9m reporter cells, […] compound, % induction of luciferase activity over basal level, read-out: V9M-SC3 Reporter activity (2.5 μM) (%)
[11] = read-out: V9M-SC3 Reporter activity ([…]), %, V9m reporter cells, […] compound, % induction of luciferase activity over basal level, read-out: V9M-SC3 Reporter activity (7.5 μM), %
[12] = read-out: Ls174T-SC1 reporter activity, % ([…]), LS174T reporter cells, […] compound, % induction of luciferase activity over basal level, read-out: Ls174T-SC1 reporter activity, % (2.5 μM)
[13] = read-out: Ls174T-SC1 reporter activity, % ([…]), LS174T reporter cells, […] compound, % induction of luciferase activity over basal level, read-out: Ls174T-SC1 reporter activity, % (7.5 μM)
[14] = read-out: V503-3H9-7 reporter activity, % ([…]), V503 reporter cells, […] compound, % induction of luciferase activity over basal level, read-out: V503-3H9-7 reporter activity, % (2.5 μM)
[15] = read-out: V503-3H9-7 reporter activity, % ([…]), V503 reporter cells, […] compound, % induction of luciferase activity over basal level, read-out: V503-3H9-7 reporter activity, % (7.5 μM)
[16] = V9m reporter cells, […] compound, % induction of luciferase activity over basal level

SMILES | activation at […] [1, 4] [%] | activation at […] [2, 5] [%] | activation at […] [2, 6] [%] | activation at […] [3, 7] [%] | activation at […] [3, 8] [%] | also measured
COc1ccc(N(CC(=O)Nc2cccnc2)S(=O)(=O)c2ccccc2)c(OC)c1 [310875−38−8] | -8.72 | 27.7 | 102 | 64.1 | 148 | 
COc1ccc(Cl)cc1N(CC(=O)Nc1cccnc1)S(=O)(=O)c1ccccc1 [328012−52−8] | -15.4 | 128 | 176 | 243 | -4.89 | 
O=C(CN(c1ccccc1)S(=O)(=O)c1ccccc1)Nc1cccnc1 [331727−07−2] | 28.2 | -7.53 | 9.47 | 8.13 | 1.14 | 
COc1ccc(OC)c(N(CC(=O)NC2CCCCC2)S(=O)(=O)c2ccccc2)c1 [333446-93-8] | 16.5 | 12.9 | 13.5 | 53.8 | 44.1 | 
COC(=O)c1ccccc1NC(=O)CN(c1cc(OC)ccc1OC)S(=O)(=O)c1ccccc1 [333449-58-4] | 6.5 | -5.9 | -3.99 | 50.1 | 20.7 | 
COc1cccc(N(CC(=O)Nc2cccnc2)S(=O)(=O)c2ccccc2)c1 [335392−39−7] | -12.8 | -0.54 | 14.3 | 18.9 | 21.9 | 
COc1ccc(OC)c(N(CC(=O)Nc2ccc(Cl)cc2)S(=O)(=O)c2ccccc2)c1 [339589-53-6] | -1 | 51.2 | 89.7 | 200 | 105 | 
COc1ccc(OC)c(N(CC(=O)Nc2ccc(Cl)c(Cl)c2)S(=O)(=O)c2ccccc2)c1 [339589-55-8] | -7 | -5.54 | 8.81 | 64 | 52.5 | 
COc1ccccc1N(CC(=O)Nc1cccnc1)S(=O)(=O)c1ccccc1 [367929−80−4] | -27.8 | 18.8 | -18 | -0.87 | -6.22 | 
COc1ccc(N(CC(=O)Nc2cccnc2)S(=O)(=O)c2ccccc2)cc1 [418783−65−0] | 0.51 | -12.6 | 5.81 | 11.6 | 6.68 | 
COc1ccc(OC)c(N(CC(=O)Nc2ccc(F)cc2)S(=O)(=O)c2ccccc2)c1 [426231-26-7] | 10 | 16.2 | 22.1 | 64 | 113 | 
CCOc1ccc(N(CC(=O)Nc2cccnc2)S(=O)(=O)c2ccccc2)cc1 [428473−22−7] | -17.9 | -15.5 | 10.6 | 19.1 | 19.8 | 
CCc1ccc(N(CC(=O)Nc2cccnc2)S(=O)(=O)c2ccccc2)cc1 [461439−84−9] | -30.3 | 4.83 | -35 | 1.57 | 5.41 | 
COc1ccc(OC)c(N(CC(=O)Nc2cccnc2)S(=O)(=O)c2ccc(C)cc2)c1 [505072−23−1] | 94.7 | 101 | 109 | 242 | 239 | 
COc1ccc(OC)c(N(CC(=O)Nc2cccnc2)S(C)(=O)=O)c1 [527699−66−7] | -31 | 7.31 | -29.6 | 38.8 | 70.9 | 
CCc1ccccc1N(CC(=O)Nc1cccnc1)S(=O)(=O)c1ccccc1 [528580−69−0] | 4.71 | 11.5 | -4.81 | 66 | 110 | 

SMILES | activation at […] [1, 4] [%] | activation at […] [2, 5] [%] | activation at […] [2, 6] [%] | activation at […] [3, 7] [%] | activation at […] [3, 8] [%] | also measured
COc1ccc(OC)c(N(CC(=O)Nc2ccccc2C(N)=O)S(=O)(=O)c2ccccc2)c1 [530107-57-4] | 59.5 | 5.45 | 8.27 | 52.6 | 84.4 | 
COc1ccc(OC)c(N(CC(=O)Nc2cccnc2)S(=O)(=O)c2ccc(OC)c(OC)c2)c1 [680599−58−0] | -5.29 | 11.5 | -13.8 | 16.7 | 28.9 | 
O=C(CN(c1ccc2c(c1)OCCO2)S(=O)(=O)c1ccccc1)Nc1cccnc1 [701217-00-7] | -2.05 | -6.89 | -0.54 | 20.1 | 33.4 | 
O=C(CN(c1cc(Cl)ccc1Cl)S(=O)(=O)c1ccccc1)Nc1cccnc1 [833428−03−8] | -4.1 | 25.1 | 47.4 | 96.4 | 150 | 
CS(=O)(=O)c1sc2nc(-c3cccs3)cc(-c3ccccc3)c2c1N [SW033290, 2-(methylsulfonyl)-4-phenyl-6-(thiophen-2-yl)thieno[2,3-b]pyridin-3-amine] |  |  |  |  |  | activation at […] [1, 9]: -34.3%; activation at […] ([1]; read-out: V9M reporter activity ([…]), […], % increased luciferase activity over basal level, 100 = doubling, read-out: V9M reporter activity (7.5 uM)): -25.4%; activation at […] ([2]; read-out: LS174T reporter activity ([…]), […], % increased luciferase activity over basal level, read-out: LS174T reporter activity (2.5 uM)): -0.24%; activation at […] ([2]; read-out: LS174T reporter activity ([…]), […], % increased luciferase activity over basal level, read-out: LS174T reporter activity (7.5 uM)): -6.58%; activation at […] ([3]; read-out: V503 reporter activity ([…]), […], % increased luciferase activity over basal level, read-out: V503 reporter activity (2.5 uM)): 30.9%; activation at […] ([3]; read-out: V503 reporter activity ([…]), […], % increased luciferase activity over basal level, read-out: V503 reporter activity (7.5 uM)): 17.7%
Nc1c(C(=O)Cc2ccccc2)sc2nc(-c3cccs3)cc(-c3ccccc3)c12 [SW033292] |  |  |  |  |  | activation at […] [1, 9]: 1.51%
COc1ccc(OC)c(N(CC(=O)O)S(=O)(=O)c2ccccc2)c1 [SW122063] |  |  |  |  |  | activation at […] [1, 10]: 1.67%; activation at […] [1, 11]: 4.8%; activation at […] [2, 12]: 22.6%; activation at […] [2, 13]: 19.9%; activation at […] [3, 14]: 42.5%; activation at […] [3, 15]: 44.1%
COc1ccc(OC)c(N(CC(=O)N2CCCCC2)S(=O)(=O)c2ccccc2)c1 [SW131633] |  |  |  |  |  | activation at […] [1, 10]: 77.2%; activation at […] [1, 11]: 141%; activation at […] [2, 12]: 8.42%; activation at […] [2, 13]: 150%; activation at […] [3, 14]: 104%; activation at […] [3, 15]: -40.6%
COc1ccc(OC)c(N(CC(N)=O)S(=O)(=O)c2ccccc2)c1 [SW131635] |  |  |  |  |  | activation at […] [1, 10]: 11.4%; activation at […] [1, 11]: 15.1%; activation at […] [2, 12]: 111%; activation at […] [2, 13]: 14.1%; activation at […] [3, 14]: -37.7%; activation at […] [3, 15]: 14.4%
COc1ccc(OC)c(N(CC(=O)Nc2cccnc2)S(=O)(=O)c2ccc(C)cc2)c1 [SW202939] |  |  |  |  |  | activation at […] [1, 10]: 75.3%; activation at […] [1, 11]: 128%; activation at […] [2, 12]: 75.5%; activation at […] [2, 13]: 166%; activation at […] [3, 14]: 26.6%; activation at […] [3, 15]: 27.3%
COc1ccc(OC)c(N(CC(=O)Nc2ccccn2)S(=O)(=O)c2ccccc2)c1 [SW202941] |  |  |  |  |  | activation at […] [1, 10]: -10.9%; activation at […] [1, 11]: 2.57%; activation at […] [2, 12]: -23.8%; activation at […] [2, 13]: -43.2%; activation at […] [3, 14]: 75.9%; activation at […] [3, 15]: 83.5%
COc1ccc(OC)c(N(CC(=O)Nc2cccnc2)S(=O)(=O)c2ccccc2C)c1 [SW202943] |  |  |  |  |  | activation at […] [1, 10]: 7.12%; activation at […] [1, 11]: 17.8%; activation at […] [2, 12]: 33.1%; activation at […] [2, 13]: 55.7%; activation at […] [3, 14]: 72.3%; activation at […] [3, 15]: 147%
COc1ccc(OC)c(N(CC(=O)Nc2cccnc2)S(=O)(=O)c2ccccc2C(F)(F)F)c1 [SW202944] |  |  |  |  |  | activation at […] [1, 10]: -0.95%; activation at […] [1, 11]: -3.73%; activation at […] [2, 12]: 32.5%; activation at […] [2, 13]: 15.8%; activation at […] [3, 14]: 131%; activation at […] [3, 15]: 94.6%
COc1ccc(OC)c(N(CC(=O)Nc2cccnc2)S(=O)(=O)c2ccccc2C#N)c1 [SW202945] |  |  |  |  |  | activation at […] [1, 10]: 28.5%; activation at […] [1, 11]: 90%; activation at […] [2, 12]: 45.7%; activation at […] [2, 13]: 135%; activation at […] [3, 14]: 34%; activation at […] [3, 15]: 127%
COc1ccc(OC)c(N(CC(=O)Nc2cncc(Cl)c2)S(=O)(=O)c2ccccc2)c1 [SW202990] |  |  |  |  |  | V9M-SC3 Reporter activity ([…]) (%) [1, 16]: 3.57%; V9M-SC3 Reporter activity ([…]), % [1, 16]: 23.49%
